Measurements: PubChem BioAssay (NCI)
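How tested: cells in 96-well plates exposed to compound for 48 hours at five concentrations. At the TGI there is no net growth.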

Tests used:
Assay in all cases: NCI anticancer screen, dose series, 48 h
[1] = system: M19-MEL melanoma
[2] = system: NCI-H23 lung
[3] = system: OVCAR-8 ovarian
[4] = system: COLO 205 colon
[5] = system: 786-0 renal
[6] = system: UACC-257 melanoma
[7] = system: KM12 colon
[8] = system: UACC-62 melanoma
[9] = system: CCRF-CEM leukemia
[10] = system: SK-OV-3 ovarian
[11] = system: SK-MEL-5 melanoma
[12] = system: NCI-H460 lung
[13] = system: HCC-2998 colon
[14] = system: K-562 leukemia
[15] = system: UO-31 renal
[16] = system: M14 melanoma
[17] = system: ACHN renal
[18] = system: TK-10 renal
[19] = system: NCI-H522 lung
[20] = system: OVCAR-3 ovarian
[21] = system: SF-539 CNS
[22] = system: RPMI-8226 leukemia
[23] = system: IGROV1 ovarian
[24] = system: OVCAR-5 ovarian
[25] = system: SR leukemia
[26] = system: U251 CNS
[27] = system: MALME-3M melanoma
[28] = system: EKVX NSCLC
[29] = system: XF 498 CNS
[30] = system: SN12C renal
[31] = system: SK-MEL-2 melanoma
[32] = system: DMS 114 small cell lung
[33] = system: LXFL 529 NSCLC
[34] = system: DLD-1 colon
[35] = system: A498 renal
[36] = system: NCI-H226 lung
[37] = system: SW-620 colon
[38] = system: HL-60(TB) leukemia
[39] = system: HCT-15 colon
[40] = system: RXF 393 renal
[41] = system: HCT-116 colon
[42] = system: MOLT-4 leukemia
[43] = system: HOP-62 NSCLC
[44] = system: SNB-78 CNS
[45] = system: HOP-18 NSCLC
[46] = system: SK-MEL-28 melanoma
[47] = system: SF-295 CNS
[48] = system: KM20L2 colon
[49] = system: A549 NSCLC
[50] = system: LOX IMVI melanoma
[51] = system: SNB-75 CNS
[52] = system: SNB-19 CNS
[53] = system: HT29 colon
[54] = system: DMS 273 small cell lung
[55] = system: SF-268 CNS
[56] = system: HOP-92 NSCLC
[57] = system: OVCAR-4 ovarian
[58] = system: CAKI-1 renal

Measured: TGI

COc1ccc(C)cc1C1CCC(=O)O1 (stereo not given)
> 100 µM: [1] | [2] | [3] | [4] | [5] | [6] | [7] | [8] | [9] | [10] | [11] | [12] | [13] | [14] | [15] | [16] | [17] | [18] | [19] | [20] | [21] | [22] | [23] | [24] | [25] | [26] | [27] | [28] | [30] | [31] | [32] | [33] | [34] | [35] | [36] | [37] | [38] | [39] | [40] | [41] | [42] | [43] | [44] | [45] | [46] | [47] | [48] | [49] | [50] | [51] | [52] | [53] | [54]
99.2 µM: [29]

O=C1CCC(=O)c2sccc2N1
> 100 µM: [1] | [2] | [3] | [4] | [5] | [6] | [7] | [9] | [10] | [11] | [12] | [13] | [14] | [15] | [16] | [17] | [18] | [19] | [20] | [21] | [22] | [23] | [24] | [26] | [27] | [28] | [29] | [30] | [31] | [32] | [33] | [34] | [35] | [36] | [37] | [55] | [38] | [39] | [40] | [41] | [42] | [56] | [43] | [57] | [44] | [45] | [46] | [47] | [48] | [49] | [58] | [50] | [51] | [52] | [53] | [54]
